Experimental data taken from the NIST ThermoML archive (doi:10.1021/je300377a).

Test: molar heat capacity at constant pressure
Conditions: 101.33 kPa, Liquid

CCCC[N+]1(C)CCCC1.O=S(=O)([N-]S(=O)(=O)C(F)(F)F)C(F)(F)F
Conditions	molar heat capacity at constant pressure [J/K/mol]
265.04 K	472.25
275.12 K	484.93
285.06 K	492.11
295.03 K	498.44
305.03 K	507.31
315.07 K	515.76
325.13 K	524.63
335.04 K	531.39
345.11 K	539.84
355 K	547.87
365.05 K	554.62
375.09 K	563.07
385.14 K	576.17

CCCCCCCCn1cc[n+](C)c1.O=S(=O)([N-]S(=O)(=O)C(F)(F)F)C(F)(F)F
Conditions	molar heat capacity at constant pressure [J/K/mol]
265.02 K	621.44
275 K	628.1
285.01 K	636.18
295.01 K	643.79
305.02 K	651.87
315.02 K	660.43
325.02 K	668.51
335.02 K	675.65
345.02 K	684.21
355.02 K	694.67
360 K	706.08
375.01 K	720.34
385.03 K	737.93

CCCCCCCC[n+]1ccccc1.O=S(=O)([N-]S(=O)(=O)C(F)(F)F)C(F)(F)F [1-octylpyridinium bis((trifluoromethyl)sulfonyl)amide]
Conditions	molar heat capacity at constant pressure [J/K/mol]
265.04 K	582.55
275.12 K	597.2
285.05 K	609.01
295.03 K	620.82
305.03 K	636.89
315.07 K	652.95
325.13 K	669.02
335.03 K	681.77
345.1 K	694.53
355 K	707.76
365.05 K	721.93
375.09 K	738.47
385.13 K	755.95

CCCCCCCC[N+]1(CC)CCCCC1.O=S(=O)([N-]S(=O)(=O)C(F)(F)F)C(F)(F)F
Conditions	molar heat capacity at constant pressure [J/K/mol]
265.01 K	703.63
275 K	719.33
285.01 K	730.47
295.01 K	743.64
305.01 K	763.4
315.01 K	782.14
325.01 K	799.37
335.02 K	814.56
345.02 K	829.25
355.01 K	844.96
365 K	868.26
375.01 K	882.44
385.02 K	903.72

CCCCCCCC[N+]1(C)CCCC1.O=S(=O)([N-]S(=O)(=O)C(F)(F)F)C(F)(F)F
Conditions	molar heat capacity at constant pressure [J/K/mol]
265.06 K	605.8
275.13 K	616.33
285.07 K	626.86
295.04 K	636.43
305.04 K	647.91
315.07 K	658.44
325.14 K	668.97
335.04 K	679.49
345.11 K	690.02
355.01 K	700.55
365.05 K	711.08
375.01 K	721.6
385.14 K	732.13
